The subject of test [1] is BEL-7404 tumor cell line. As to the kind of experiment: Induction of apoptosis in human BEL-7404 tumor cell line in presence of EGCG at 30.5 uM. Type of test: functional, cell-based.
The subject of test [2] is ADR5000 cell line. As to the kind of experiment: Antiproliferative activity against human CEM/ADR5000 cells assessed as reduction in cell viability incubated for 48 hrs by MTT assay. In kind it is functional, cell-based. The following applies: ADR5000, 48 h.
The subject of test [3] is ADR5000 cell line. As to the kind of experiment: Induction of apoptosis in human CEM/ADR5000 cells in presence of EGCG at 20 uM. Type of test: functional, cell-based.
The test system of test [4] is BEL-7404 tumor cell line. The test can be described thus: Antiproliferative activity against human BEL-7404 tumor cell line assessed as inhibition of cell proliferation incubated for 72 hrs by MTT assay. In kind it is functional, cell-based. The following applies: BEL-7404, 72 h. For orientation: Tetrazolium assays rely on reduction of a dye to a coloured formazan, in cell work by metabolically active cells.

The test system of test [5] is DLD-1. The test can be described thus: Induction of apoptosis in human DLD-1 cells in presence of EGCG at 50 uM. Type of test: functional, cell-based.
For test [6], the system named is DLD-1. As to the kind of experiment: Antiproliferative activity against human DLD-1 cells assessed as reduction in cell growth incubated for 24 hrs by MTT assay. Type of test: functional, cell-based. Conditions: DLD-1, 24 h.
In a further test the test system is MCF7. As to the kind of experiment: Induction of apoptosis in human MCF7 cells in presence of EGCG at 50 uM.

Broadly, the IC50 is the concentration that inhibits the measured activity by half. In the case of `COc1cccc2c1C(=O)c1c(O)c3c(c(O)c1C2=O)C[C@@](O)(C(=O)CO)C[C@@H]3O[C@H]1C[C@H](N)[C@H](O)[C@H](C)O1` [DOXORUBICIN], the IC50 in the test with BEL-7404 tumor cell line [1] was 3.28 µM; in the test on ADR5000 cell line [2], 88.9 µM; in the test on ADR5000 cell line [3], 29.9 µM; in the test with BEL-7404 tumor cell line [4], 1.62 µM.
`O=c1[nH]cc(F)c(=O)[nH]1` [FLUOROURACIL]: the IC50 was 11 µM with DLD-1 [5] and 150 µM with DLD-1 [6].
As to `CC/C(=C(\c1ccccc1)c1ccc(OCCN(C)C)cc1)c1ccccc1` [TAMOXIFEN], the IC50 in the test with MCF7 was determined as 5.8 µM.

The record behind these values is ChEMBL document CHEMBL5335772, “EGCG adjuvant chemotherapy: Current status and future perspectives” (Eur J Med Chem, 2023).
